# Experimental data reported in US20170014372A1, “Drug Combination for Treatment of Proliferative Diseases” (ECOLE POLYTECHNIQUE FEDERALE DE LAUSANNE (EPFL), priority 2014, published 2017).
# Assays:
# [1] = system: 786-0 cells; assay: Cell viability assay on 786-0; type: cell-based, human; conditions: 72 h
# Description: (§1) Cell viability assay was performed as previously described (31). Cells were seeded in a 96-well culture plate at a density of 2.5-10×10^3 cells/well, depending on cell type (ECRF24 in gelatin-coated plates), 24 h prior to the application drug combinations or control conditions (in a total volume of 50 μl) and were subsequently incubated for an additional 72 h. Cell viability was assessed using the CellTiter-Glo luminescent cell viability assay (Promega, Madison, Wisc., USA).
# [2] = system: ECRF24 cells; assay: Cell viability (proliferation) assay on endothelial cells ECRF24; type: cell-based, human; conditions: for single-drug dose required for the same EC proliferation inhibition as the best combination (90% inhibition): assuming linear dose-response curves; for theoretical dose reduction in combination: vs single-drug dose for 90% inhibition
# Description: (§2) Cell viability assay was performed as previously described (31).
# The feedback system control (FSC) technique was employed as previously described (13, 33, 34). In the research presented here, the FSC technique is implemented using the differential evolution (DE) algorithm (35) and two separate optimization were performed with the cellular outputs of ECRF cell viability (proliferation) and migration (wound healing) assays. 19 drug combinations were tested per iteration and 11 iterations were performed in each optimization, or until a plateau in the best output value was reached.
# Drug mixing was performed as follows: stock solutions were first used to prepare the highest concentration of each compound and lower concentrations were prepared through serial dilutions of the higher concentrations. All drug concentrations were prepared 9 times more concentrated than desired to account for dilution by other compounds (or medium when a compound was not included). The drug mixtures were prepared directly before applying drug combinations to cells by first adding the required amount of medium for each combination (i.e.
# all compounds which are included at concentration 0) and then adding the required concentration of each compound, always in the same order. The cells were incubated in 50 μl of each mixture for 72 h in the proliferation assay or for 6 h in the migration assay.
# Second order linear regression models were generated using the data obtained from each optimization. Data was modeled using real concentration values and both concentration values and proliferation output data was transformed using the z-score function in Matlab. The negative values of the 2nd-order terms regression coefficients corresponds to synergistic effect, the positive value to the antagonistic effect. Appropriate data and model verification methods were implemented to ensure the accuracy and reliability of predictions made based on these models. The main assumptions of linear regression models were verified (i.e. weak exogeneity, linearity, constant variance, independence of errors, and lack of multicolinearity). As the presence of multicolinearity was indicated in a few of the regressors in the second order linear regression model of the proliferation data (based on the analysis of variance inflation factors (VIF) and condition indices), a stepwise linear regression was also performed to isolate the most important regressors and remove instabilities in the regression analysis due to multicolinearity. Drug interactions were additionally analyzed using the Compusyn software (14), where a ‘combination index’ (CI) is calculated for drug combinations and CI values less than […] indicate synergistic drug combinations, while CI-values greater than 1 indicate antagonistic drug.
# [3] = system: HUVEC; assay: Cell viability assay on HUVEC; type: cell-based, human; conditions: 72 h
# Description: as §2
# [4] = system: A2780 cells; assay: Cell viability assay on A2780; type: cell-based, human; conditions: 72 h
# Description: as §1
# [5] = system: panAKT, pMAPK and ribosomal protein S6 (pS6); assay: Western blot of panAKT, pMAPK and pS6 in ECRF24; type: cell-based, human; conditions: 5 hrs incubation
# Description: Cells were seeded in a 6-well plate (30×10^4 cells per well) 24 h prior to the removal of medium and application of selected drug combinations or DMSO control (total volume of 2 mL). After an additional 5 hrs of incubation at the given conditions, medium was removed, cells were washed with PBS and 100 μl of buffer lysate was added (prepared on ice and composed of RIPA, protease inhibitors (1:1000) and sodium orthovanadate (1:1000)). Wells were then scratched and cell lysate solution was removed and put on ice for 10 min. Cell supernatant was isolated after centrifuging solution at 12,000 min^−1 for 15 min. A solution of blue buffer (4×)+u-Page Reducing Agent (10×) was added to supernatant and samples were kept at 95 ° C. for 5 min.
# The samples were then run in an electrophoresis gel for 90 min at 125 V. The monoclonal antibodies included phosphorylated Akt (473), total Akt, phosphorylated MAPK, and phosphorylated S6 (235/236 hamster, Cell Signaling). Cell extracts were prepared by detergent lysis [50 mmol/L Tris-HCl (pH 8.0), 150 mmol/L NaCl, 1% NP40, 0.5% sodium deoxycholate, 0.1% SDS containing protease (Sigma, St. Louis, Mo.) and phosphatase (Sigma) inhibitor cocktails]. The soluble protein concentration was determined by micro-BSA assay (Pierce, Rockford Ill.). Protein immunodetection was done by electrophoretic transfer of SDS-PAGE separated proteins to nitrocellulose, incubation with antibody and chemiluminescent second step detection (PicoWest; Pierce). Protein expression was quantified in Fiji by densitometry as previously described (39, 40). Results were expressed as a relative ratio between samples and control.
# [6] = system: A2780 tumors grafted on the CAM; assay: Human ovarian carcinoma (A2780) grafted on the chicken chorioallantoic membrane (CAM); type: in vivo, chicken embryo; conditions: for tumor growth inhibition, single compound at high concentration: high concentration: 29 μg/kg (4) and 615 μg/kg (8); for tumor growth inhibition, single compound at low concentration: low concentration: 2.9 μg/kg (4) and 307 μg/kg (8)
# Description: Human ovarian carcinoma tumors were implanted on the CAM as previously described (36). Briefly, fertilized chicken eggs were incubated in a hatching incubator (37° C. and relative humidity 65%), as previously described (37). […] Treatment began when vascularized tumors were visible, 3 days after tumor implantation (EDD10). Drug combinations were prepared as done in in vitro assays, were pre-mixed and administered as a 20 μL intravenously injection. […] On the last day of experiment CAM experiments, tumors were resected, fixed overnight in zinc fixative solution as previously described (38). […] Primary antibody incubation was performed overnight (DIA-310; Dianova, Hamburg, Germany).
# [7] = system: LS174T tumors; assay: Human colorectal adenocarcinoma (LS174T) grafted intradermally in Swiss nu/nu mice; type: in vivo; conditions: treated daily; for tumor growth inhibition: doses per Table 2
# Description: Mice were randomized into groups and treated with sham (CTRL), individual drugs, 4+8+9 (M1 and M2), and 4+8 (M3), respectively (Table 2) Individual drugs inhibited tumor growth only by approximately 0% and 6% (4) at 5 and 15 mg/kg, 10% (8) or 23% (9), whereas combinations M1 and M2 by 76±14% and 25±17%, respectively (FIG. 5D). On the last day of the experiment (FIG. 5E) tumors were resected, and paraffin embedded for immunohistochemical staining for endothelial cells (CD31). In M1-treated tumors microvessel density was approximately 80% lower then in sham-treated tumors (CTRL), FIG. 5F.
# FIG. 5. Inhibition of A2780 (A-C) or LS174T (D-F) tumor growth in vivo by the best mixtures optimized. (A) Growth curve of A2780 tumors grafted on the CAM showing tumor volume with respect to treatment day. Treatment was administered i.v. on days 1 and 2 and tumors were excised on the 8th (last) day of experiment. Data points represent the average tumor volume as a percentage of the final control volume per experiment. (B) Figures show representative tumors of sham treated (CTRL) and F drug combination. (C) The microvessel density profiles are expressed as the number of vessels per mm^2 and presented as a percentage of a control. (D) LS174T grafted intradermally in Swiss nu/nu mice and treated daily with single compounds or mixtures. Data points represent the average tumor volume as a percentage of the final control volume per experiment and error bars represent the SEM; N=3-9. *p <0.05 and **p<0.01. ‘S’ indicates synergy (Cl≦0.8). (E) The microvessel density profiles are expressed as the number of vessels per mm^2 and presented as a percentage of a control. […] The bar in the upper right image represents 0.5 mm and is valid for both images. Data points represent average values of 2 independent experiments and error bars represent SEM; N=3-7; **p<0.01.
# [8] = system: renal cell carcinoma (Caki-1) cells; conditions: combinations of Table 4
# Description: as §1
Molecule,single-drug dose required for the same EC proliferation inhibition as the best combination (90% inhibition) [2],theoretical dose reduction in combination [2],inhibition of HUVEC viability [3],pAkt protein [5],"tumor growth inhibition, single compound at high concentration [6]","tumor growth inhibition, single compound at low concentration [6]",tumor growth inhibition [7],further results
"CNC(=O)c1ccccc1Sc1ccc2c(/C=C/c3ccccn3)n[nH]c2c1 [compound 3, axitinib]",–,–,–,–,–,–,–,inhibition of 786-0 cell viability [1]: approx. 30%
"C#Cc1cccc(Nc2ncnc3cc(OCCOC)c(OCCOC)cc23)c1 [compound 4, erlotinib]",approximately 50 μM,5 fold,more sensitive,slight decrease,~20%,approximately 6%,–,inhibition of A2780 cell viability [4]: approximately 40%; tumor growth inhibition at 5 mg/kg ([7]; 5 mg/kg): approximately 0%; tumor growth inhibition at 15 mg/kg ([7]; 15 mg/kg): ~6%
"Cc1ccc(C(C)C)cc1.[Cl][Ru]([Cl])[PH]12CN3CN(CN(C3)C1)C2 [compound 8, RAPTA-C]",~2000 µM,11 fold,–,slight decrease,~20%,approximately 6%,~10%,–
"Cn1c(=O)n(-c2ccc(C(C)(C)C#N)cc2)c2c3cc(-c4cnc5ccccc5c4)ccc3ncc21 [compound 9, BEZ-235]",~0.12 µM,6 fold,more sensitive,–,–,–,~23%,"pS6 expression [5]: nearly complete inhibition; pS6 expression ([5]; listed as BEZ235): inhibited; tumor growth inhibition, single compound at its applied concentration ([6]; limiting compound, dose used in the combinations): approximately 35%"
AZD4547,–,–,–,–,–,–,–,inhibition of Caki-1 cell proliferation / synergy [8]: effective and synergistic inhibition
